# Measurements taken from patent publication US20240132431A1, “METHOD FOR ALKYLATING ACIDIC FUNCTIONAL GROUP” (Chugai Seiyaku Kabushiki Kaisha, priority 2021, published 2024).
# Target: T1, Bcl-2 protein (Recombinant Human Bcl-2 Protein) (Homo sapiens, UniProt P10415)
# T1 construct: purchased Novus NBP2-34889
# Assay: Binding evaluation of mixture library compounds to Bcl-2 using AS-MS (affinity selection mass spectrometry)
# Conditions: AS-MS, mixture library, Bcl-2, ASMS Ratio(%)=(A−C)/B×100; for ASMS ratio (%) n = 1: replicate n = 1; for ASMS ratio (%) n = 2: replicate n = 2
# Outline: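 Bcl-2 binding is scored from LC/MS signal retained with protein through gel-filtration spin columns, normalised to unfiltered and protein-free controls. Incubation: 20 μM protein, […] per compound, 1 h, 23° C.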
# T1 sequence (P10415 whole entry): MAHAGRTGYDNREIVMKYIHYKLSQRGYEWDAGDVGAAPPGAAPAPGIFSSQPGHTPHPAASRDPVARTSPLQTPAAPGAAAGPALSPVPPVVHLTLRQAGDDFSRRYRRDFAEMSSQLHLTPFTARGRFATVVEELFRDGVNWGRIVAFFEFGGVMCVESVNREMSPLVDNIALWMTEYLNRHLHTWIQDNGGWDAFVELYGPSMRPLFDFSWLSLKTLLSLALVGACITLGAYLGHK
Structure (SMILES),ASMS ratio (%) n = 1 [%],ASMS ratio (%) n = 2 [%]
"CCOc1cncc(-c2cc(CN3CCN(c4ccc(C(=O)NS(=O)(=O)CC56CC7CC(CC(C7)C5)C6)nn4)CC3)cc(OC(C)C)c2)c1 [B2A084-01, N-(1-Adamantylmethylsulfonyl)-6-[4-[[3-(5-ethoxypyridin-3-yl)-5-propan-2-yloxyphenyl]methyl]piperazin-1-yl]pyridazine-3-carboxamide]",13.3,11.9
"CCOc1cccc(-c2cc(OC)c(CN3CCN(c4ccc(C(=O)NS(=O)(=O)CC56CC7CC(CC(C7)C5)C6)nn4)CC3)c(OC)c2)c1 [B2A085-01, N-(1-Adamantylmethylsulfonyl)-6-[4-[[4-(3-ethoxyphenyl)-2,6-dimethoxyphenyl]methyl]piperazin-1-yl]pyridazine-3-carboxamide]",0.0,0.0
"CCOc1cncc(-c2cc(OC)c(CN3CCN(c4ccc(C(=O)NS(=O)(=O)CC56CC7CC(CC(C7)C5)C6)nn4)CC3)c(OC)c2)c1 [B2A086-01, N-(1-Adamantylmethylsulfonyl)-6-[4-[[4-(5-ethoxypyridin-3-yl)-2,6-dimethoxyphenyl]methyl]piperazin-1-yl]pyridazine-3-carboxamide]",0.0,0.0
"CCOc1cccc(-c2cc(CN3CCN(c4ccc(C(=O)NS(=O)(=O)CC56CC7CC(CC(C7)C5)C6)nn4)CC3)cc(C(F)(F)F)c2)c1 [B2A087-01, N-(1-Adamantylmethylsulfonyl)-6-[4-[[3-(3-ethoxyphenyl)-5-(trifluoromethyl)phenyl]methyl]piperazin-1-yl]pyridazine-3-carboxamide]",7.2,12.7
"CCOc1cncc(-c2cc(CN3CCN(c4ccc(C(=O)NS(=O)(=O)CC56CC7CC(CC(C7)C5)C6)nn4)CC3)cc(C(F)(F)F)c2)c1 [B2A088-01, N-(1-Adamantylmethylsulfonyl)-6-[4-[[3-(5-ethoxypyridin-3-yl)-5-(trifluoromethyl)phenyl]methyl]piperazin-1-yl]pyridazine-3-carboxamide]",12.0,14.0
"CCOc1cncc(-c2cc(CN3CCN(c4ccc(C(=O)NS(=O)(=O)CC56CC7CC(CC(C7)C5)C6)nn4)CC3)cc(OC(F)(F)F)c2)c1 [B2A090-01, N-(1-Adamantylmethylsulfonyl)-6-[4-[[3-(5-ethoxypyridin-3-yl)-5-(trifluoromethoxy)phenyl]methyl]piperazin-1-yl]pyridazine-3-carboxamide]",22.0,4.7
"CCOc1cccc(-c2ccc(CN3CCN(c4ccc(C(=O)NS(=O)(=O)CC56CC7CC(CC(C7)C5)C6)nn4)CC3)c3ccccc23)c1 [B2A091-01, N-(1-Adamantylmethylsulfonyl)-6-[4-[[4-(3-ethoxyphenyl)naphthalen-1-yl]methyl]piperazin-1-yl]pyridazine-3-carboxamide]",−2.6,3.8
"CCOc1cncc(-c2ccc(CN3CCN(c4ccc(C(=O)NS(=O)(=O)CC56CC7CC(CC(C7)C5)C6)nn4)CC3)c3ccccc23)c1 [B2A092-01, N-(1-Adamantylmethylsulfonyl)-6-[4-[[4-(5-ethoxypyridin-3-yl)naphthalen-1-yl]methyl]piperazin-1-yl]pyridazine-3-carboxamide]",20.8,16.6
"CCOc1cccc(-c2csc(CN3CCN(c4ccc(C(=O)NS(=O)(=O)CC56CC7CC(CC(C7)C5)C6)nn4)CC3)c2)c1 [B2A093-01, N-(1-Adamantylmethylsulfonyl)-6-[4-[[4-(3-ethoxyphenyl)thiophen-2-yl]methyl]piperazin-1-yl]pyridazine-3-carboxamide]",13.0,0.0
"CCOc1cncc(-c2csc(CN3CCN(c4ccc(C(=O)NS(=O)(=O)CC56CC7CC(CC(C7)C5)C6)nn4)CC3)c2)c1 [B2A094-01, N-(1-Adamantylmethylsulfonyl)-6-[4-[[4-(5-ethoxypyridin-3-yl)thiophen-2-yl]methyl]piperazin-1-yl]pyridazine-3-carboxamide]",0.0,0.0
"CCOc1cccc(C#Cc2ccccc2CN2CCN(c3ccc(C(=O)NS(=O)(=O)CC45CC6CC(CC(C6)C4)C5)nn3)CC2)c1 [B2A095-01, N-(1-Adamantylmethylsulfonyl)-6-[4-[[2-[2-(3-ethoxyphenyl)ethynyl]phenyl]methyl]piperazin-1-yl]pyridazine-3-carboxamide]",1.6,13.8
"CCOc1cccc(-c2ccc(C(C)N3CCN(c4ccc(C(=O)NS(=O)(=O)CC56CC7CC(CC(C7)C5)C6)cc4)CC3)cc2)c1 (stereo not drawn) [B2A097-01, N-(1-Adamantylmethylsulfonyl)-4-[4-[1-[4-(3-ethoxyphenyl)phenyl]ethyl]piperazin-1-yl]benzamide]",9.7,0.4
"CCOc1cncc(-c2ccc(C(C)N3CCN(c4ccc(C(=O)NS(=O)(=O)CC56CC7CC(CC(C7)C5)C6)cc4)CC3)cc2)c1 (stereo not drawn) [B2A098-01, N-(1-Adamantylmethylsulfonyl)-4-[4-[1-[4-(5-ethoxypyridin-3-yl)phenyl]ethyl]piperazin-1-yl]benzamide]",18.2,2.1
"CCOc1cccc(-c2ccc(C(C)N3CCN(c4ccc(C(=O)NS(=O)(=O)CC56CC7CC(CC(C7)C5)C6)cc4)CC3)c(F)c2)c1 (stereo not drawn) [B2A099-01, N-(1-Adamantylmethylsulfonyl)-4-[4-[1-[4-(3-ethoxyphenyl)-2-fluorophenyl]ethyl]piperazin-1-yl]benzamide]",0.0,0.0
"CCOc1cncc(-c2ccc(C(C)N3CCN(c4ccc(C(=O)NS(=O)(=O)CC56CC7CC(CC(C7)C5)C6)cc4)CC3)c(F)c2)c1 (stereo not drawn) [B2A100-01, N-(1-Adamantylmethylsulfonyl)-4-[4-[1-[4-(5-ethoxypyridin-3-yl)-2-fluorophenyl]ethyl]piperazin-1-yl]benzamide]",0.0,0.0
"CCOc1cccc(-c2csc(C(=O)N3CCN(c4ccc(C(=O)NS(C)(=O)=O)nn4)CC3)c2)c1 [B2I001-01, 6-[4-[4-(3-Ethoxyphenyl)thiophene-2-carbonyl]piperazin-1-yl]-N-methylsulfonylpyridazine-3-carboxamide]",0.0,–
"CCOc1cncc(-c2csc(C(=O)N3CCN(c4ccc(C(=O)NS(C)(=O)=O)nn4)CC3)c2)c1 [B2I002-01, 6-[4-[4-(5-Ethoxypyridin-3-yl)thiophene-2-carbonyl]piperazin-1-yl]-N-methylsulfonylpyridazine-3-carboxamide]",0.0,0.0
"CCOc1cccc(-c2ccc(C(=O)N3CCN(c4ccc(C(=O)NS(C)(=O)=O)nn4)CC3)cc2C)c1 [B2I003-01, 6-[4-[4-(3-Ethoxyphenyl)-3-methylbenzoyl]piperazin-1-yl]-N-methylsulfonylpyridazine-3-carboxamide]",0.0,0.0
"CCOc1cncc(-c2ccc(C(=O)N3CCN(c4ccc(C(=O)NS(C)(=O)=O)nn4)CC3)cc2C)c1 [B2I004-01, 6-[4-[4-(5-Ethoxypyridin-3-yl)-3-methylbenzoyl]piperazin-1-yl]-N-methylsulfonylpyridazine-3-carboxamide]",0.9,−0.3
"CCOc1cccc(-c2ccc(C(=O)N3CCN(c4ccc(C(=O)NS(C)(=O)=O)nn4)CC3)cc2F)c1 [B2I005-01, 6-[4-[4-(3-Ethoxyphenyl)-3-fluorobenzoyl]piperazin-1-yl]-N-methylsulfonylpyridazine-3-carboxamide]",0.0,0.0
"CCOc1cncc(-c2ccc(C(=O)N3CCN(c4ccc(C(=O)NS(C)(=O)=O)nn4)CC3)cc2F)c1 [B2I006-01, 6-[4-[4-(5-Ethoxypyridin-3-yl)-3-fluorobenzoyl]piperazin-1-yl]-N-methylsulfonylpyridazine-3-carboxamide]",0.0,0.0
"CCOc1cccc(C#Cc2ccccc2C(=O)N2CCN(c3ccc(C(=O)NS(C)(=O)=O)nn3)CC2)c1 [B2I007-01, 6-[4-[2-[2-(3-Ethoxyphenyl)ethynyl]benzoyl]piperazin-1-yl]-N-methylsulfonylpyridazine-3-carboxamide]",−1.6,−1.6
"CCOc1cncc(C#Cc2ccccc2C(=O)N2CCN(c3ccc(C(=O)NS(C)(=O)=O)nn3)CC2)c1 [B2I008-01, 6-[4-[2-[2-(5-Ethoxypyridin-3-yl)ethynyl]benzoyl]piperazin-1-yl]-N-methylsulfonylpyridazine-3-carboxamide]",0.0,0.0
"CCOc1cccc(C#Cc2cncc(C(=O)N3CCN(c4ccc(C(=O)NS(C)(=O)=O)nn4)CC3)c2)c1 [B2I009-01, 6-[4-[5-[2-(3-Ethoxyphenyl)ethynyl]pyridine-3-carbonyl]piperazin-1-yl]-N-methylsulfonylpyridazine-3-carboxamide]",0.0,0.0
"CCOc1cccc(-c2ccccc2CCC(=O)N2CCN(c3ccc(C(=O)NS(C)(=O)=O)nn3)CC2)c1 [B2I011-01, 6-[4-[3-[2-(3-Ethoxyphenyl)phenyl]propanoyl]piperazin-1-yl]-N-methylsulfonylpyridazine-3-carboxamide]",0.0,0.0
"CCOc1cncc(-c2ccccc2CCC(=O)N2CCN(c3ccc(C(=O)NS(C)(=O)=O)nn3)CC2)c1 [B2I012-01, 6-[4-[3-[2-(5-Ethoxypyridin-3-yl)phenyl]propanoyl]piperazin-1-yl]-N-methylsulfonylpyridazine-3-carboxamide]",−4.0,−0.2
